Reference: ChEMBL document CHEMBL1147101, “Development and persistence of antimicrobial resistance in Pseudomonas aeruginosa: a longitudinal observation in mechanically ventilated patients” (Antimicrob Agents Chemother, 2007)
The source made the active and inactive calls. The rule behind the calls is not given here.

How the values were obtained:
Format in all cases: functional, organism-based
Details in all cases: Trachea
Pseudomonas aeruginosa [1] = assay: Antimicrobial activity against Pseudomonas aeruginosa P21.23 tracheal isolates from mechanically ventilated tuberculosis patient
Pseudomonas aeruginosa [2] = assay: Antimicrobial activity against Pseudomonas aeruginosa 2C2 tracheal isolates from mechanically ventilated tuberculosis patient
Pseudomonas aeruginosa [3] = assay: Antimicrobial activity against Pseudomonas aeruginosa 2A5 tracheal isolates from mechanically ventilated tuberculosis patient
Pseudomonas aeruginosa [4] = assay: Antimicrobial activity against Pseudomonas aeruginosa 2A7 tracheal isolates from mechanically ventilated tuberculosis patient
Pseudomonas aeruginosa [5] = assay: Antimicrobial activity against Pseudomonas aeruginosa 1B9 tracheal isolates from mechanically ventilated tuberculosis patient
Pseudomonas aeruginosa [6] = assay: Antimicrobial activity against Pseudomonas aeruginosa 65.18-2 tracheal isolates from mechanically ventilated tuberculosis patient
Pseudomonas aeruginosa [7] = assay: Antimicrobial activity against Pseudomonas aeruginosa 65.68-2 tracheal isolates from mechanically ventilated tuberculosis patient
Pseudomonas aeruginosa [8] = assay: Antimicrobial activity against Pseudomonas aeruginosa 65.38-3 tracheal isolates from mechanically ventilated tuberculosis patient
Pseudomonas aeruginosa [9] = assay: Antimicrobial activity against Pseudomonas aeruginosa 1A9 tracheal isolates from mechanically ventilated tuberculosis patient
Pseudomonas aeruginosa [10] = assay: Antimicrobial activity against Pseudomonas aeruginosa IC7 tracheal isolates from mechanically ventilated tuberculosis patient
Pseudomonas aeruginosa [11] = assay: Antimicrobial activity against Pseudomonas aeruginosa 65.38-4 tracheal isolates from mechanically ventilated tuberculosis patient
Pseudomonas aeruginosa [12] = assay: Antimicrobial activity against Pseudomonas aeruginosa 2A1 tracheal isolates from mechanically ventilated tuberculosis patient
Pseudomonas aeruginosa [13] = assay: Antimicrobial activity against Pseudomonas aeruginosa 2A9 tracheal isolates from mechanically ventilated tuberculosis patient
Pseudomonas aeruginosa [14] = assay: Antimicrobial activity against Pseudomonas aeruginosa 65.33-1 tracheal isolates from mechanically ventilated tuberculosis patient
Pseudomonas aeruginosa [15] = assay: Antimicrobial activity against Pseudomonas aeruginosa IA5 tracheal isolates from mechanically ventilated tuberculosis patient
Pseudomonas aeruginosa [16] = assay: Antimicrobial activity against Pseudomonas aeruginosa 2A3 tracheal isolates from mechanically ventilated tuberculosis patient
Pseudomonas aeruginosa [17] = assay: Antimicrobial activity against Pseudomonas aeruginosa 65.38-2 tracheal isolates from mechanically ventilated tuberculosis patient
Pseudomonas aeruginosa [18] = assay: Antimicrobial activity against Pseudomonas aeruginosa 3B1 tracheal isolates from mechanically ventilated tuberculosis patient
Pseudomonas aeruginosa [19] = assay: Antimicrobial activity against Pseudomonas aeruginosa 65.38-1 tracheal isolates from mechanically ventilated tuberculosis patient
Pseudomonas aeruginosa [20] = assay: Antimicrobial activity against Pseudomonas aeruginosa 65.18-4 tracheal isolates from mechanically ventilated tuberculosis patient
Pseudomonas aeruginosa [21] = assay: Antimicrobial activity against Pseudomonas aeruginosa 65.18-3 tracheal isolates from mechanically ventilated tuberculosis patient
Pseudomonas aeruginosa [22] = assay: Antimicrobial activity against Pseudomonas aeruginosa 2C1 tracheal isolates from mechanically ventilated tuberculosis patient
Pseudomonas aeruginosa [23] = assay: Antimicrobial activity against Pseudomonas aeruginosa 2F6 tracheal isolates from mechanically ventilated tuberculosis patient
Pseudomonas aeruginosa [24] = assay: Antimicrobial activity against Pseudomonas aeruginosa P21.21 tracheal isolates from mechanically ventilated tuberculosis patient
Pseudomonas aeruginosa [25] = assay: Antimicrobial activity against Pseudomonas aeruginosa 65.68-1 tracheal isolates from mechanically ventilated tuberculosis patient
Pseudomonas aeruginosa [26] = assay: Antimicrobial activity against Pseudomonas aeruginosa 65.36-4 tracheal isolates from mechanically ventilated tuberculosis patient
Pseudomonas aeruginosa [27] = assay: Antimicrobial activity against Pseudomonas aeruginosa 2A2 tracheal isolates from mechanically ventilated tuberculosis patient
Pseudomonas aeruginosa [28] = assay: Antimicrobial activity against Pseudomonas aeruginosa 65.33-4 tracheal isolates from mechanically ventilated tuberculosis patient
Pseudomonas aeruginosa [29] = assay: Antimicrobial activity against Pseudomonas aeruginosa 65.68-4 tracheal isolates from mechanically ventilated tuberculosis patient
Pseudomonas aeruginosa [30] = assay: Antimicrobial activity against Pseudomonas aeruginosa 2A6 tracheal isolates from mechanically ventilated tuberculosis patient
Pseudomonas aeruginosa [31] = assay: Antimicrobial activity against Pseudomonas aeruginosa 65.18-1 tracheal isolates from mechanically ventilated tuberculosis patient
Pseudomonas aeruginosa [32] = assay: Antimicrobial activity against Pseudomonas aeruginosa 65.68-3 tracheal isolates from mechanically ventilated tuberculosis patient
Pseudomonas aeruginosa [33] = assay: Antimicrobial activity against Pseudomonas aeruginosa 2B5 tracheal isolates from mechanically ventilated tuberculosis patient
Pseudomonas aeruginosa [34] = assay: Antimicrobial activity against Pseudomonas aeruginosa 65.33-2 tracheal isolates from mechanically ventilated tuberculosis patient
Pseudomonas aeruginosa [35] = assay: Antimicrobial activity against Pseudomonas aeruginosa 65.36-3 tracheal isolates from mechanically ventilated tuberculosis patient
Pseudomonas aeruginosa [36] = assay: Antimicrobial activity against Pseudomonas aeruginosa 65.33-3 tracheal isolates from mechanically ventilated tuberculosis patient
Pseudomonas aeruginosa [37] = assay: Antimicrobial activity against Pseudomonas aeruginosa 65.36-1 tracheal isolates from mechanically ventilated tuberculosis patient
Pseudomonas aeruginosa [38] = assay: Antimicrobial activity against Pseudomonas aeruginosa ID7 tracheal isolates from mechanically ventilated tuberculosis patient
Pseudomonas aeruginosa [39] = assay: Antimicrobial activity against Pseudomonas aeruginosa 65.36-2 tracheal isolates from mechanically ventilated tuberculosis patient
Pseudomonas aeruginosa [40] = assay: Antimicrobial activity against Pseudomonas aeruginosa 15H5 tracheal isolates from mechanically ventilated chronic respiratory insufficiency patient
Pseudomonas aeruginosa [41] = assay: Antimicrobial activity against Pseudomonas aeruginosa 1C9 tracheal isolates from mechanically ventilated tuberculosis patient

Structure (SMILES)	Activity (Pseudomonas aeruginosa [1])	Activity (Pseudomonas aeruginosa [2])	Activity (Pseudomonas aeruginosa [3])	Activity (Pseudomonas aeruginosa [4])	Activity (Pseudomonas aeruginosa [5])	Activity (Pseudomonas aeruginosa [6])	Activity (Pseudomonas aeruginosa [7])	Activity (Pseudomonas aeruginosa [8])	Activity (Pseudomonas aeruginosa [9])	Activity (Pseudomonas aeruginosa [10])	Activity (Pseudomonas aeruginosa [13])	Activity (Pseudomonas aeruginosa [15])	Activity (Pseudomonas aeruginosa [16])	Activity (Pseudomonas aeruginosa [18])	Activity (Pseudomonas aeruginosa [21])	Activity (Pseudomonas aeruginosa [22])	Activity (Pseudomonas aeruginosa [23])	Activity (Pseudomonas aeruginosa [24])	Activity (Pseudomonas aeruginosa [25])	Activity (Pseudomonas aeruginosa [27])	also measured
CCN[C@@H]1C[C@H](N)[C@@H](O[C@H]2OC(CN)=CC[C@H]2N)[C@H](O)[C@H]1O[C@H]1OC[C@](C)(O)[C@H](NC)[C@H]1O	Active	Active	Active	inactive	inactive	Active	inactive	inactive	Active	Active	inactive	Active	Active	Active	Active	inactive	inactive	Active	Active	Active	Activity (Pseudomonas aeruginosa [11]): inactive; Activity (Pseudomonas aeruginosa [12]): Active; Activity (Pseudomonas aeruginosa [14]): Active; Activity (Pseudomonas aeruginosa [17]): inactive; Activity (Pseudomonas aeruginosa [19]): inactive; Activity (Pseudomonas aeruginosa [20]): Active; Activity (Pseudomonas aeruginosa [26]): inactive
C[C@H]1[C@H](NC(=O)/C(=N\OC(C)(C)C(=O)O)c2csc(N)n2)C(=O)N1S(=O)(=O)O	Active	Active	Active	inactive	inactive	Active	Active	inactive	inactive	Active	inactive	Active	Active	Active	Active	inactive	inactive	Active	Active	Active	Activity (Pseudomonas aeruginosa [28]): Active; Activity (Pseudomonas aeruginosa [29]): Active; Activity (Pseudomonas aeruginosa [30]): inactive; Activity (Pseudomonas aeruginosa [31]): Active; Activity (Pseudomonas aeruginosa [14]): Active; Activity (Pseudomonas aeruginosa [19]): inactive; Activity (Pseudomonas aeruginosa [20]): Active; Activity (Pseudomonas aeruginosa [32]): Active; Activity (Pseudomonas aeruginosa [33]): Active
C[C@@H](O)[C@H]1C(=O)N2C(C(=O)O)=C(S[C@@H]3CN[C@H](C(=O)N(C)C)C3)[C@H](C)[C@H]12	Active	–	Active	inactive	inactive	–	inactive	inactive	inactive	Active	inactive	Active	Active	Active	Active	inactive	inactive	Active	inactive	inactive	Activity (Pseudomonas aeruginosa [34]): inactive; Activity (Pseudomonas aeruginosa [29]): inactive; Activity (Pseudomonas aeruginosa [30]): inactive; Activity (Pseudomonas aeruginosa [35]): inactive; Activity (Pseudomonas aeruginosa [31]): Active; Activity (Pseudomonas aeruginosa [36]): inactive; Activity (Pseudomonas aeruginosa [11]): inactive; Activity (Pseudomonas aeruginosa [12]): inactive; Activity (Pseudomonas aeruginosa [17]): inactive; Activity (Pseudomonas aeruginosa [19]): inactive; Activity (Pseudomonas aeruginosa [32]): inactive; Activity (Pseudomonas aeruginosa [26]): inactive
CCN1CCN(C(=O)N[C@@H](C(=O)N[C@@H]2C(=O)N3[C@@H]2SC(C)(C)[C@@H]3C(=O)O)c2ccccc2)C(=O)C1=O	Active	Active	Active	inactive	inactive	Active	Active	inactive	inactive	Active	inactive	Active	Active	Active	Active	inactive	inactive	Active	Active	Active	Activity (Pseudomonas aeruginosa [28]): Active; Activity (Pseudomonas aeruginosa [34]): Active; Activity (Pseudomonas aeruginosa [37]): Active; Activity (Pseudomonas aeruginosa [29]): Active; Activity (Pseudomonas aeruginosa [30]): inactive; Activity (Pseudomonas aeruginosa [35]): Active; Activity (Pseudomonas aeruginosa [31]): Active; Activity (Pseudomonas aeruginosa [38]): Active; Activity (Pseudomonas aeruginosa [36]): inactive; Activity (Pseudomonas aeruginosa [11]): Active; Activity (Pseudomonas aeruginosa [12]): inactive; Activity (Pseudomonas aeruginosa [14]): Active; Activity (Pseudomonas aeruginosa [17]): inactive; Activity (Pseudomonas aeruginosa [19]): inactive; Activity (Pseudomonas aeruginosa [20]): Active; Activity (Pseudomonas aeruginosa [39]): Active; Activity (Pseudomonas aeruginosa [32]): Active; Activity (Pseudomonas aeruginosa [26]): inactive; Activity (Pseudomonas aeruginosa [33]): Active
NC[C@H]1O[C@H](O[C@H]2[C@H](O)[C@@H](O[C@H]3O[C@H](CO)[C@@H](O)[C@H](N)[C@H]3O)[C@H](N)C[C@@H]2N)[C@H](N)C[C@@H]1O	Active	Active	Active	Active	–	Active	Active	Active	Active	Active	Active	Active	Active	Active	Active	Active	Active	Active	Active	Active	Activity (Pseudomonas aeruginosa [28]): Active; Activity (Pseudomonas aeruginosa [34]): Active; Activity (Pseudomonas aeruginosa [37]): Active; Activity (Pseudomonas aeruginosa [29]): Active; Activity (Pseudomonas aeruginosa [30]): Active; Activity (Pseudomonas aeruginosa [35]): Active; Activity (Pseudomonas aeruginosa [31]): Active; Activity (Pseudomonas aeruginosa [36]): Active; Activity (Pseudomonas aeruginosa [11]): Active; Activity (Pseudomonas aeruginosa [12]): Active; Activity (Pseudomonas aeruginosa [14]): Active; Activity (Pseudomonas aeruginosa [17]): Active; Activity (Pseudomonas aeruginosa [20]): Active; Activity (Pseudomonas aeruginosa [39]): Active; Activity (Pseudomonas aeruginosa [40]): Active; Activity (Pseudomonas aeruginosa [32]): Active; Activity (Pseudomonas aeruginosa [26]): Active; Activity (Pseudomonas aeruginosa [33]): Active; Activity (Pseudomonas aeruginosa [41]): Active
